A word on the half-life: it is the time in which the quantity being followed falls by half. Lower therefore signals fast loss. By fraction unbound is commonly meant free concentration divided by total concentration. The low end stands for extensive binding, the high end for weak binding. Broadly, the AUC is the area under the concentration-time curve, a measure of exposure. A higher AUC goes with high exposure. As usually defined, the Cmax is the peak of the concentration-time curve. Broadly, the bioavailability is dose-corrected exposure relative to a reference, in per cent.

Here are results for 3 molecules from ChEMBL document CHEMBL4266012, “Identification of Quinoline-Based RIP2 Kinase Inhibitors with an Improved Therapeutic Index to the hERG Ion Channel” (ACS Med Chem Lett, 2018).

Data set [1] can be described thus: Half life in Sprague-Dawley rat at 1 mg/kg, iv by LC-MS/MS analysis. Conditions: in vivo. Format: ADME, organism-based.
For the next data set, the system named is Rattus norvegicus. Nature of the data set: Time at which plasma concentration stays above in vitro human whole blood IC50 in Crl:CD(SD) rat peritonitis model at 2 mg/kg, po. The class given is ADME, organism-based. The conditions noted are these: in vivo.
The nature of data set [2]: Fraction unbound in Sprague-Dawley rat plasma. The class given is ADME, cell-free.
Data set [3] is described as follows: AUC in Sprague-Dawley rat at 2 mg/kg, po by LC-MS/MS analysis. The class given is ADME, organism-based. The conditions noted are these: in vivo.
Data set [4] in a line: Clearance in Sprague-Dawley rat at 2 mg/kg, iv or 2 mg/kg, po by LC-MS/MS analysis. Format: ADME, organism-based. Conditions: in vivo.
The nature of data set [5]: Cmax in Sprague-Dawley rat at 2 mg/kg, po by LC-MS/MS analysis. Conditions: in vivo. Format: ADME, organism-based. Also noted: dose 2 mg/kg, route oral.
Data set [6] can be described thus: Oral bioavailability in Sprague-Dawley rat at 2 mg/kg by LC-MS/MS analysis. The class given is ADME, organism-based. Conditions: in vivo.
Data set [7] is described as follows: Volume of distribution at steady state in Sprague-Dawley rat at 2 mg/kg, iv or 2 mg/kg, po by LC-MS/MS analysis. The class given is ADME, organism-based. The conditions noted are these: in vivo, read-out: Vdss.
Data set [8] can be described thus: Half life in Sprague-Dawley rat at 2 mg/kg, iv by LC-MS/MS analysis. Format: ADME, organism-based. Conditions: in vivo.
Data set [9] is described as follows: Cardiotoxicity in arterially perfused rabbit cardiac left ventricular wedge assessed as Tp-e interval time at 10 uM by electrophysiology assay (reference value: 59.2 +/- 4.8 milliseconds). Format: toxicity, tissue-based, Oryctolagus cuniculus, Heart left ventricle.
A short description of data set [10]: Cardiotoxicity in arterially perfused rabbit cardiac left ventricular wedge assessed as prolongation of QT interval by electrophysiology assay. The class given is toxicity, tissue-based, Oryctolagus cuniculus, Heart left ventricle.
The nature of data set [11]: Clearance in Beagle dog at 1.1 mg/kg, iv or 2 mg/kg, po by LC-MS/MS analysis. Conditions: in vivo. Format: ADME, organism-based, Canis lupus familiaris.
The nature of data set [12]: Cardiotoxicity in arterially perfused rabbit cardiac left ventricular wedge assessed as change in isometric contractile force at 1 uM by electrophysiology assay (reference value: 0%). The class given is toxicity, tissue-based, Oryctolagus cuniculus, Heart left ventricle.
Data set [13] is described as follows: Oral bioavailability in Beagle dog at 2 mg/kg by LC-MS/MS analysis. Format: ADME, organism-based, Canis lupus familiaris. Conditions: in vivo.
Data set [14] in a line: Cardiotoxicity in arterially perfused rabbit cardiac left ventricular wedge assessed as change in QT interval at 3 uM by electrophysiology assay. The class given is toxicity, tissue-based, Oryctolagus cuniculus, Heart left ventricle.
The nature of data set [15]: Cardiotoxicity in arterially perfused rabbit cardiac left ventricular wedge assessed as QRS interval time at 10 uM by electrophysiology assay (reference value: 33.9 +/- 2.7 milliseconds). Format: toxicity, tissue-based, Oryctolagus cuniculus, Heart left ventricle.
Data set [16] can be described thus: Cardiotoxicity in arterially perfused rabbit cardiac left ventricular wedge assessed as change in isometric contractile force at 3 uM by electrophysiology assay (reference value: 0%). The class given is toxicity, tissue-based, Oryctolagus cuniculus, Heart left ventricle.
A short description of data set [17]: AUC in Beagle dog at 2 mg/kg, po by LC-MS/MS analysis. The class given is ADME, organism-based, Canis lupus familiaris. The conditions noted are these: in vivo.
Data set [18] in a line: Fraction unbound in Beagle dog plasma. Format: ADME, cell-free, Canis lupus familiaris.
Data set [19] can be described thus: Half life in Sprague-Dawley rat at 1.1 mg/kg, iv by LC-MS/MS analysis. The class given is ADME, organism-based. Conditions: in vivo.
Data set [20] can be described thus: Cardiotoxicity in arterially perfused rabbit cardiac left ventricular wedge assessed as change in QT interval at 1 uM by electrophysiology assay. Format: toxicity, tissue-based, Oryctolagus cuniculus, Heart left ventricle.
A short description of data set [21]: Cardiotoxicity in arterially perfused rabbit cardiac left ventricular wedge assessed as Tp-e interval by electrophysiology assay. The class given is toxicity, tissue-based, Oryctolagus cuniculus, Heart left ventricle.
Data set [22] can be described thus: Cardiotoxicity in arterially perfused rabbit cardiac left ventricular wedge assessed as Tp-e interval time at 3 uM by electrophysiology assay (reference value: 59.2 +/- 4.8 milliseconds). The class given is toxicity, tissue-based, Oryctolagus cuniculus, Heart left ventricle.
Data set [23] in a line: Cardiotoxicity in arterially perfused rabbit cardiac left ventricular wedge assessed as change in QT interval at 0.3 uM by electrophysiology assay. Format: toxicity, tissue-based, Oryctolagus cuniculus, Heart left ventricle.
Data set [24] can be described thus: Half life in Beagle dog at 1.1 mg/kg, iv by LC-MS/MS analysis. The class given is ADME, organism-based, Canis lupus familiaris. Conditions: in vivo.
A short description of data set [25]: Cardiotoxicity in arterially perfused rabbit cardiac left ventricular wedge assessed as Tp-e interval time at 0.3 uM by electrophysiology assay (reference value: 59.2 +/- 4.8 milliseconds). Format: toxicity, tissue-based, Oryctolagus cuniculus, Heart left ventricle.
The nature of data set [26]: Cardiotoxicity in arterially perfused rabbit cardiac left ventricular wedge assessed as Tp-e interval time at 1 uM by electrophysiology assay (reference value: 59.2 +/- 4.8 milliseconds). Format: toxicity, tissue-based, Oryctolagus cuniculus, Heart left ventricle.
Data set [27] can be described thus: Cardiotoxicity in arterially perfused rabbit cardiac left ventricular wedge assessed as QRS interval time at 3 uM by electrophysiology assay (reference value: 33.9 +/- 2.7 milliseconds). Format: toxicity, tissue-based, Oryctolagus cuniculus, Heart left ventricle.
Data set [28] is described as follows: Volume of distribution at steady state in Sprague-Dawley rat at 1.1 mg/kg, iv or 2 mg/kg, po by LC-MS/MS analysis. The conditions noted are these: in vivo, read-out: Vdss. Format: ADME, organism-based.
Data set [29] can be described thus: Cardiotoxicity in arterially perfused rabbit cardiac left ventricular wedge assessed as change in isometric contractile force at 10 uM by electrophysiology assay (reference value: 0%). The class given is toxicity, tissue-based, Oryctolagus cuniculus, Heart left ventricle.
Data set [30] can be described thus: Volume of distribution at steady state in Beagle dog at 1.1 mg/kg, iv or 2 mg/kg, po by LC-MS/MS analysis. The class given is ADME, organism-based, Canis lupus familiaris. Conditions: in vivo, read-out: Vdss.
Data set [31] in a line: Cardiotoxicity in arterially perfused rabbit cardiac left ventricular wedge assessed as change in isometric contractile force at 0.3 uM by electrophysiology assay (reference value: 0%). The class given is toxicity, tissue-based, Oryctolagus cuniculus, Heart left ventricle.
A short description of data set [32]: Cardiotoxicity in arterially perfused rabbit cardiac left ventricular wedge assessed as QRS interval time at 1 uM by electrophysiology assay (reference value: 33.9 +/- 2.7 milliseconds). Format: toxicity, tissue-based, Oryctolagus cuniculus, Heart left ventricle.
The nature of data set [33]: Cardiotoxicity in arterially perfused rabbit cardiac left ventricular wedge assessed as change in QT interval at 10 uM by electrophysiology assay. Format: toxicity, tissue-based, Oryctolagus cuniculus, Heart left ventricle.
The nature of data set [34]: Clearance in Sprague-Dawley rat at 1.1 mg/kg, iv or 2 mg/kg, po by LC-MS/MS analysis. The class given is ADME, organism-based. The conditions noted are these: in vivo.
A short description of data set [35]: Cmax in Beagle dog at 2 mg/kg, po by LC-MS/MS analysis. The class given is ADME, organism-based, Canis lupus familiaris. The arrangement: dose 2 mg/kg, route oral. The conditions noted are these: in vivo.
Data set [36] is described as follows: Cardiotoxicity in arterially perfused rabbit cardiac left ventricular wedge assessed as QRS interval time at 0.3 uM by electrophysiology assay (reference value: 33.9 +/- 2.7 milliseconds). The class given is toxicity, tissue-based, Oryctolagus cuniculus, Heart left ventricle.

In turn, `CC(C)(C)S(=O)(=O)c1ccc2nccc(Nc3n[nH]c4ccc(F)cc34)c2c1` had a half-life in data set [1] of 7 h. In the data set on Rattus norvegicus, this molecule returned a Time of 4 h. Besides, the fraction unbound in [2] was 0.026.
`Cc1[nH]nc(Nc2ccnc3ccc(S(=O)(=O)C(C)(C)C)cc23)c1C` returned an AUC in [3] of 3800 ng·h/mL. Also, the clearance in data set [4] turned out to be 12 mL/min/kg. For the same molecule, the Cmax in data set [5] is 990 ng/mL. In data set [6], this molecule came in with a bioavailability of 82%. Moreover, in [7], the Vd is 2.1 L/kg. In data set [2], the fraction unbound was determined as 0.112. In [8], this molecule gave a half-life of 4.2 h.
`COc1cc2nccc(Nc3n[nH]c(C)c3C)c2cc1S(=O)(=O)C(C)(C)C`: the Time in data set [9] was determined as 77 ms; in data set [15] it was 36.3 ms; in data set [22], 73.3 ms; in [25], 64.2 ms; with Rattus norvegicus, 24 h; in [26], 67.9 ms. The results for the Time in [27], in [32] and in data set [36] were 35.2 ms, 35.4 ms and 34.9 ms, respectively. For the same molecule, the Activity result in data set [10] is “Dose-dependent effect”; in [12], -17.3%; in data set [14], 6.4%; in [16] it was -22.6%; in data set [20] it was 3.6%; in data set [21], “Dose-dependent effect”. The Activity is listed as 2% in data set [23], -28% in data set [29], -9.9% in [31] and 9.3% in data set [33]. In addition, the values for the AUC in [3] and in data set [17] were 2400 ng·h/mL and 1900 ng·h/mL, respectively. The clearance in data set [11] worked out at 20 mL/min/kg; in [34], 12 mL/min/kg. Moreover, the bioavailability in data set [13] is 96%; in data set [6], 85%. Further, the fraction unbound in data set [18] was found to be 0.163; in [2], 0.055. The half-life was 3.1 h in data set [19] and 2.5 h in data set [24]. In addition, the Cmax in [5] was 740 ng/mL; in data set [35], 330 ng/mL. Besides, the results for the Vd in data set [28] and in [30] were 1.1 L/kg and 3.5 L/kg, respectively.
